Patent US20110212892A1, “AGENT FOR TREATMENT OF DIABETES” (Dainippon Sumitomo Pharma Co., Ltd., priority 2008, published 2011)

Tests used:
Assay type in all cases: in vivo
C57BL/KsJ-db/db mice [1] = assay: Blood glucose after glibenclamide administration in db/db mice repeatedly given Compound A (Example 1-1); conditions: for Blood glucose level after the glibenclamide administration (relative value when blood glucose level at 0 hr is 100%) / Area under the curve of blood glucose level after the glibenclamide administration (relative value when blood glucose level at 0 hr is 100%): vehicle or Compound A 30 mg/kg once a day 15 days, next day vehicle or glibenclamide 10 mg/kg by gavage, n = 8; for Blood glucose level after the glibenclamide administration (relative value when blood glucose level at 0 hr is 100%): feed removed; for Blood glucose level after the glibenclamide administration (relative value when blood glucose level at 0 hr is 100%) / Blood glucose level before the glibenclamide administration / Area under the curve of blood glucose level after the glibenclamide administration (relative value when blood glucose level at 0 hr is 100%): mean ± SD; for Blood glucose level before the glibenclamide administration: Compound A 30 mg/kg by gavage once a day for 15 days, next day, before glibenclamide/vehicle, n = 8, 30 mg/kg; for Decrease of blood glucose levels after glibenclamide/vehicle administration (in words): vehicle or Compound A 30 mg/kg 15 days, then vehicle or glibenclamide 10 mg/kg
Experimental: The antidiabetic action resulting from the combination of an insulin secretagogue (SU drug) and Compound A was studied by using C57BL/KsJ-db/db mice (hereinafter, referred to as “db/db mice”) (9 weeks old, male, CLEA Japan, Inc.) as a model of type 2 diabetes. The db/db mice were allocated to 4 groups (8 mice/group), and each group was put into a cage provided with feed. Among the 4 groups, a vehicle (0.5% methylcellulose solution) was administered to Groups 1 and 2 by gavage once a day for 15 days, and Compound A (30 mg/kg) was administered to Groups 3 and 4 under the same condition as Groups 1 and 2. On the next day after the last administration, the vehicle was administered to Groups 1 and 3, and glibenclamide (10 mg/kg) was administered to Groups 2 and 4, both by gavage; then the feed were removed from the cages and the changes in blood glucose levels were studied in each group. […]

db/db mice [2] = assay: Blood glucose level on Day 11 in db/db mice, Compound A and metformin (Example 1-3); conditions: Compound A 30 mg/kg and/or metformin 300 mg/kg by gavage once a day for 14 days; for Blood glucose level: Day 11, mean ± SD, n = 8, in mg/dL (unit assumed)
Experimental: (§1) The antidiabetic action resulting from the combination of an insulin-sensitizing drug and a biguanide was studied by using db/db mice (8 weeks old, male, CLEA Japan, Inc.). The db/db mice were allocated to 4 groups (8 mice/group). Among the 4 groups, a vehicle (0.5% methylcellulose solution) was administered to Group 1 by gavage once a day for 14 days from the day of grouping (Day 1); Compound A (30 mg/kg) was administered to Group 2, metformin (300 mg/kg) was administered to Group 3, and Compound A (30 mg/kg) and metformin (300 mg/kg) were administered to Group 4 under the same condition as Group 1. Blood glucose and HbAlc levels were measured on Day 11 and Day 15, respectively.

db/db mice [3] = assay: HbA1c change to Day 33 in db/db mice given agents in feed (Example 1-2); conditions: start of experiment to Day 33, feed with 0.02 (w/w) % Compound A and/or 0.06 (w/w) % sitagliptin; for Amounts of change in HbA1c before and after treatment: mean ± SD, n = 8
Text: (§2) The antidiabetic action resulting from the combination of an insulin secretagogue (DPP-4 inhibitor) and Compound A was studied by using db/db mice (8 weeks old, male, CLEA Japan, Inc.). The db/db mice were allocated to 4 groups (8 mice/group). The mice in Group 1 were given powdered feed (control), Group 2 were given powdered feed containing 0.02 (w/w) % of Compound A, Group 3 were given powdered feed containing 0.06 (w/w) % of sitagliptin, and Group 4 were given powdered feed containing 0.02 (w/w) % of Compound A and 0.06 (w/w) % of sitagliptin. In addition, the powdered feed mentioned-above were all the same (i.e. trade name: CE-2, CLEA Japan, Inc.). An oral glucose tolerance test was performed on Day 28. To be more specific, on the day before the test, the mice were fasted overnight; and on the test day, 2 g/kg of glucose was administered by gavage to study the changes in blood glucose levels. Glycosylated hemoglobin (hereinafter, referred to as “HbAlc”) was measured on Day 33.

db/db mice [4] = assay: Oral glucose tolerance test on Day 28 in db/db mice given agents in feed (Example 1-2); conditions: feed with 0.02 (w/w) % Compound A and/or 0.06 (w/w) % sitagliptin; for Blood glucose level after the glucose load on Day 28 / Area under the curve of blood glucose level after the glucose load on Day 28: OGTT 2 g/kg glucose, mean ± SD, n = 8; for Blood glucose level after the glucose load on Day 28: fasted overnight; for Area under the curve of blood glucose level in oral glucose tolerance test versus control (in words): Day 28
Text: as §2

C57BL/KsJ-db/db mice [5] = assay: Blood insulin after glibenclamide administration in db/db mice repeatedly given Compound A (Example 1-1); conditions: vehicle or Compound A 30 mg/kg once a day 15 days, next day vehicle or glibenclamide 10 mg/kg by gavage, mean ± SD, n = 8
Experimental: The antidiabetic action resulting from the combination of an insulin secretagogue (SU drug) and Compound A was studied by using C57BL/KsJ-db/db mice (hereinafter, referred to as “db/db mice”) (9 weeks old, male, CLEA Japan, Inc.) as a model of type 2 diabetes. The db/db mice were allocated to 4 groups (8 mice/group), and each group was put into a cage provided with feed. Among the 4 groups, a vehicle (0.5% methylcellulose solution) was administered to Groups 1 and 2 by gavage once a day for 15 days, and Compound A (30 mg/kg) was administered to Groups 3 and 4 under the same condition as Groups 1 and 2. On the next day after the last administration, the vehicle was administered to Groups 1 and 3, and glibenclamide (10 mg/kg) was administered to Groups 2 and 4, both by gavage; then the feed were removed from the cages and the changes in blood glucose levels were studied in each group.
As a result, blood insulin level was higher in Group 4 (i.e. repeatedly administered with Compound A and then with glibenclamide) than in Groups 1 and 2 (i.e. repeatedly administered with the vehicle).

db/db mice [6] = assay: HbA1c change Day 1 to Day 15 in db/db mice, Compound A and metformin (Example 1-3); conditions: Compound A 30 mg/kg and/or metformin 300 mg/kg by gavage once a day for 14 days
Experimental: as §1

Row | SMILES | Blood glucose level after the glibenclamide administration (relative value when blood glucose level at 0 hr is 100%) (C57BL/KsJ-db/db mice [1]; 1 hr) | Blood glucose level after the glibenclamide administration (relative value when blood glucose level at 0 hr is 100%) (C57BL/KsJ-db/db mice [1]; 2 hr) | Blood glucose level after the glibenclamide administration (relative value when blood glucose level at 0 hr is 100%) (C57BL/KsJ-db/db mice [1]; 4 hr) | Blood glucose level after the glibenclamide administration (relative value when blood glucose level at 0 hr is 100%) (C57BL/KsJ-db/db mice [1]; 6 hr) | Decrease of blood glucose levels after glibenclamide/vehicle administration (in words) (C57BL/KsJ-db/db mice [1]) | Area under the curve of blood glucose level after the glibenclamide administration (relative value when blood glucose level at 0 hr is 100%) (C57BL/KsJ-db/db mice [1]) | Blood glucose level (Day 11) and amount of HbA1c change (Day 1 to Day 15); single agents versus vehicle, combination versus single agents (in words) (db/db mice [2]) | Blood glucose level (db/db mice [2]) | Change in HbA1c versus control (in words) (db/db mice [3]) | Amounts of change in HbA1c before and after treatment (db/db mice [3]) | Blood glucose level after the glucose load on Day 28 (db/db mice [4]; 0 min) | Blood glucose level after the glucose load on Day 28 (db/db mice [4]; 10 min) | Blood glucose level after the glucose load on Day 28 (db/db mice [4]; 30 min) | Blood glucose level after the glucose load on Day 28 (db/db mice [4]; 60 min) | Blood glucose level after the glucose load on Day 28 (db/db mice [4]; 90 min) | Blood glucose level after the glucose load on Day 28 (db/db mice [4]; 120 min) | Area under the curve of blood glucose level in oral glucose tolerance test versus control (in words) (db/db mice [4]) | Area under the curve of blood glucose level after the glucose load on Day 28 (db/db mice [4]) | Blood insulin level after the glibenclamide administration (relative value when insulin level at 0 hr is 100%) (C57BL/KsJ-db/db mice [5]; 1 hr) | Blood insulin level after the glibenclamide administration (relative value when insulin level at 0 hr is 100%) (C57BL/KsJ-db/db mice [5]; 2 hr) | other results
1 | Cc1ccc(C(=O)c2cccn2C/C=C/c2ccc(COC(C)(C)C(=O)O)cc2)cc1 [Compound A, 2-methyl-2-[(4-{(1E)-3-[2-(4-methylbenzoyl)-1H-pyrrol-1-yl]prop-1-en-1-yl}benzyl)oxy]propanoic acid] | 100.2 ± 10.2% | 96.1 ± 14.2% | 93.8 ± 15.9% | 93.6 ± 14.1% | did not | 575.6 ± 73.0 % · hr | significant decrease of blood glucose level and amount of HbAlc change | 321.9 ± 43.5 | A difference was not observed | 1.28 ± 0.53% | 146 ± 33 mg/dL | 500 ± 62 mg/dL | 633 ± 57 mg/dL | 566 ± 41 mg/dL | 457 ± 74 mg/dL | 412 ± 82 mg/dL | significant difference was not observed | 59692 ± 4741 mg·min/dL | 55.9 ± 15.8% | 61.6 ± 17.3% | Blood glucose level before the glibenclamide administration (C57BL/KsJ-db/db mice [1]; group later given glibenclamide): 323.4 ± 75.7 mg/dL; Blood glucose level before the glibenclamide administration (C57BL/KsJ-db/db mice [1]; group later given vehicle): 332.1 ± 90.8 mg/dL; Area under the curve of blood insulin level after the glibenclamide administration (relative value when insulin level at 0 hr is 100%) (C57BL/KsJ-db/db mice [5]): 136.8 ± 17.7 % · hr; Amount of change in HbA1c (db/db mice [6]): 0.93 ± 0.28
2 | COc1ccc(Cl)cc1C(=O)NCCc1ccc(S(=O)(=O)NC(=O)NC2CCCCC2)cc1 [Glibenclamide, glibenclamide, reference compound] | 96.2 ± 7.7% | 91.3 ± 5.9% | 82.9 ± 12.7% | 80.9 ± 12.1% | no decrease in blood glucose levels | 530.0 ± 35.1 % · hr |  |  |  |  |  |  |  |  |  |  |  |  | 75.1 ± 25.1% | 83.3 ± 21.4% | Area under the curve of blood insulin level after the glibenclamide administration (relative value when insulin level at 0 hr is 100%) (C57BL/KsJ-db/db mice [5]): 166.7 ± 31.5 % · hr
3 | CN(C)C(=N)N=C(N)N [Metformin, metformin, reference compound] |  |  |  |  |  |  | significant decrease of blood glucose level and amount of HbAlc change | 323.5 ± 66.3 |  |  |  |  |  |  |  |  |  |  |  |  | Amount of change in HbA1c (db/db mice [6]): 1.09 ± 0.16
4 | N[C@@H](CC(=O)N1CCn2c(nnc2C(F)(F)F)C1)Cc1cc(F)c(F)cc1F [Sitagliptin, sitagliptin, reference compound] |  |  |  |  |  |  |  |  | A difference was not observed | 1.68 ± 0.51% | 167 ± 15 mg/dL | 542 ± 81 mg/dL | 588 ± 125 mg/dL | 510 ± 95 mg/dL | 455 ± 100 mg/dL | 408 ± 107 mg/dL | significant difference was not observed | 57680 ± 10679 mg·min/dL |  |  | 
